The results in this text go back to ChEMBL document CHEMBL5233288, “Ginkgo Biflavones Cause p53 Wild-Type Dependent Cell Death in a Transcription-Independent Manner of p53” (J Nat Prod, 2023).

The test system of one series is HT-29. As to the kind of experiment: Cytotoxicity against human HT-29 cells expressing p53 mutant assessed as induction of cell death at 20 uM incubated for 72 hrs by resazurin based analysis. It is filed as functional.
Series [1] concerns HCT-116. Briefly: Downregulation of MDM2 protein expression in human HCT-116 cells at 10 uM incubated for 24 hrs by western blot analysis. It is filed as functional, cell-based.
For series [2], the system named is HCT-116. As to the kind of experiment: Downregulation of MDM2 protein expression in human HCT-116 cells at 10 uM incubated for 24 hrs in presence of 10 uM 5-FU by western blot analysis. It is filed as functional, cell-based.
Series [3] relates to HCT-116. Briefly: Induction of cell cycle arrest in human HCT-116 cells expressing wild type p53 assessed as accumulation of cells at G2 phase at 10 uM incubated for 24 hrs by PI staining based flow cytometry (reference value: 30.7 to 31.5%). It is filed as functional.
Series [4] deals with HCT-116. As to the kind of experiment: Upregulation of p53 protein expression in human HCT-116 cells at 10 uM incubated for 24 hrs by western blot analysis. It is filed as functional, cell-based.
Series [5] concerns HCT-116. As to the kind of experiment: Increase in mitochondrial complex III activity in human HCT-116 cells at 20 uM incubated for 24 hrs. It is filed as functional, cell-based.
For series [6], the system named is HCT-116. Briefly: Upregulation of phosphorylated p53 expression in human HCT-116 cells expressing wild type p53 at 20 uM incubated for 24 hrs by western blot analysis. It is filed as functional, cell-based.
Series [7] has as its system HCT-116. As to the kind of experiment: Cytotoxicity against human HCT-116 cells assessed as reduction in cell viability at 10 uM incubated for 72 hrs in presence of ferroptosis inhibitor, ferrostatin-1 by resazurin-based analysis. It is filed as functional.
For series [8], the system named is HCT-116. Briefly: Induction of apoptosis in human HCT-116 cells expressing wild type p53 assessed as necrotic cells at 10 uM incubated for 48 hrs by Annexin V-FITC/PI staining based flow cytometry (reference value: 0.44%). It is filed as functional.
The test system of series [9] is HCT-116. As to the kind of experiment: Cytotoxicity against human HCT-116 cells assessed as reduction in cell viability at 10 uM incubated for 72 hrs in presence of autophagy inhibitor, 3-methyladenine by resazurin-based analysis. It is filed as functional.
Series [10] relates to HCT-116. Briefly: Induction of cell cycle arrest in human HCT-116 cells expressing wild type p53 assessed as accumulation of cells at G1 phase at 5 uM incubated for 24 hrs by PI staining based flow cytometry (reference value: 62.5 to 66.7%). It is filed as functional.
In series [11] the test system is HCT-116. As to the kind of experiment: Upregulation of acetylated p53 protein expression in human HCT-116 cells expressing wild type p53 at 20 uM incubated for 24 hrs by western blot analysis. It is filed as functional, cell-based.
Series [12] relates to HCT-116. As to the kind of experiment: Antitumor activity against human HCT-116 cells xenografted in BALB/c nude mouse assessed as reduction in tumor weight at 10 mg/kg, ip qd for 12 days. It is filed as functional, organism-based. As to conditions: time 12.0 day.
Series [13] in a line: Toxicity against BALB/c nude mouse xenografted with human HCT-116 cells assessed as body weight loss at 10 mg/kg, ip qd for 12 days and measured every 2 days. It is filed as organism-based. As to conditions: in vivo, 288 h, time 12 day.
A short description of series [14]: Toxicity against BALB/c nude mouse xenografted with human HCT-116 cells assessed as body weight loss at 10 mg/kg, ip qd for 12 days and administered with 5-FU at 30 mg/kg, ip once every 3 days for 12 days and measured every 2 days. As to conditions: in vivo, 288 h, time 12 day. It is filed as organism-based.
Series [15] relates to HCT-116. Briefly: Potentiation of 5-FU-induced antitumor activity against human HCT-116 cells xenografted in BALB/c nude mouse assessed as reduction in tumor weight at 10 mg/kg, ip qd for 12 days and administered with 5-FU at 30 mg/kg, ip once every 3 days for 12 days. It is filed as functional, organism-based. As to conditions: time 12.0 day.
Series [16] deals with HCT-116. Briefly: Potentiation of 5-FU-induced antitumor activity against human HCT-116 cells xenografted in BALB/c nude mouse assessed as reduction in tumor volume at 10 mg/kg, ip qd for 12 days and administered with 5-FU at 30 mg/kg, ip once every 3 days for 12 days and measured every 2 days. It is filed as functional, organism-based. As to conditions: time 12.0 day.
Series [17] relates to HCT-116. Briefly: Antitumor activity against human HCT-116 cells xenografted in BALB/c nude mouse assessed as reduction in tumor volume at 10 mg/kg, ip qd for 12 days and measured every 2 days. As to conditions: time 12.0 day. It is filed as functional, organism-based.

The source made the active and inactive calls. The rule behind the calls is not given here.

On to `COc1ccc(-c2cc(=O)c3c(O)cc(O)cc3o2)cc1-c1c(O)cc(O)c2c(=O)cc(-c3ccc(O)cc3)oc12` [BILOBETIN], for which the result with HT-29, in the series with HCT-116 [7] and in the series with HCT-116 [9] was inactive. Besides, the inhibition entry in the series with HCT-116 [1] and in the series on HCT-116 [2] was “Active” in each case. For the same compound, the Activity in the series on HCT-116 [3] was determined as 33.4%; with HCT-116 [8], 0.46%; in the series with HCT-116 [10] it was 64.4%. Moreover, the outcome in the series on HCT-116 [4], with HCT-116 [5], with HCT-116 [6] and with HCT-116 [11] was Active.
As for `COc1cc(O)c2c(=O)cc(-c3ccc(OC)c(-c4c(O)cc(O)c5c(=O)cc(-c6ccc(O)cc6)oc45)c3)oc2c1` [GINKGETIN], the outcome with HCT-116 [12], in the series on HCT-116 [4], with HCT-116 [5], in the series with HCT-116 [6], in the series on HCT-116 [15] and in the series on HCT-116 [16] was Active. The result with HCT-116 [11] and in the series with HCT-116 [17] was Active. The outcome in the series with HT-29, in the series with HCT-116 [7] and with HCT-116 [9] was inactive. Besides, the Activity result in [13] was “Non-Toxic”; in the series on HCT-116 [3] it was 43.1%; in series [14], “Non-Toxic”; with HCT-116 [8], 0.99%; in the series on HCT-116 [10] it was 58.1%. The inhibition result in the series with HCT-116 [1] and with HCT-116 [2] was “Active” throughout.
For the compound `COc1ccc(-c2cc(=O)c3c(O)cc(O)c(-c4cc(-c5cc(=O)c6c(O)cc(O)cc6o5)ccc4OC)c3o2)cc1` [ISOGINKGETIN], the result in the series with HT-29, in the series on HCT-116 [7] and in the series with HCT-116 [9] was inactive. For the same compound, the inhibition result in the series on HCT-116 [1] and in the series with HCT-116 [2] was “Active” in each case. For the same compound, the values for the Activity with HCT-116 [3], in the series on HCT-116 [8] and with HCT-116 [10] were 44.5%, 0.92% and 58.4%, respectively. For the same compound, the result in the series on HCT-116 [4], with HCT-116 [5], with HCT-116 [6] and in the series with HCT-116 [11] was Active.
